# Laboratory results from patent US20140093903A1, “METHODS FOR DIAGNOSIS, PROGNOSIS AND METHODS OF TREATMENT” (Nodality, Inc., priority 2012, published 2014).
# What was measured:
# healthy B cells = system: healthy B cells
# Protocol: (§1) Cryopreserved PBMCs, 23 from CLL patients and 7 from healthy donors, were rapidly thawed in a 37° C. water bath. 1 mL of pre-warmed thawing media (PBS 1% FBS, 2 mM EDTA) was added dropwise to each of the cryovials. Thawed cells were transferred to a tube containing 8 mL thawing media. Tubes were inverted and centrifuged at 200×g for 8 minutes at room temperature. Supernatant was decanted, cell pellets were resuspended in 1 mL RPMI 1640 1% FCS and filtered over 70 um nylon mesh (BD Falcon) to remove cell clumps and debris. 11 mL of additional RPMI 1640 1% FCS was added to the samples to wash. A 20 uL aliquot was removed from each sample and placed into a solution of PBS 4% FCS CD45 Alexa Flour 700 and Propidium Iodide for viability and counting on a BDLSRII cytometer. The remaining volume of cell suspension was centrifuged at 200×g for 8 minutes at room temperature
# For single agent modulators 150 μL of 10× solutions were arrayed into wells of a 96-well v-bottom plate (Nunc). Corresponding daughter plates were taken from the 37° C. incubator, and […] of RPMI1640 1% FCS was added to each well using the Liquidator 96-well pipettor. […] The daughter plates were pulse vortexed for 5 seconds and placed into a 37° C. water bath for 10 minutes.
# Corresponding daughter plates were taken from the 37° C. incubator. […]
# Antibody cocktails for signaling and apoptosis readouts were prepared in FACS Buffer. […]
# CLL B cells = assay: SCNP phospho-flow: H2O2-modulated BCR signaling, CLL samples; assay type: cell-based, human; conditions: after exposure to H2O2
# Protocol: as §1, with “Thawed cells were transferred to a tube containing 8 mL thawing media. Tubes were inverted and centrifuged at 200×g for 8 minutes at room temperature.” left out, “cytometer.” for “cytometer. The remaining volume of cell suspension was centrifuged at 200×g for 8 minutes at room temperature”
# At the end of the 10 minute incubation […] 5.6% PFA (final 1.6%) was added to each well to fix the cells.
# At the end of the 10 minute incubation 200 uL 5.6% PFA (final 1.6%) was added to each well to fix the cells.
# Cells were permeabilized by adding 600 µL of ice cold 100% methanol to each well using the Costar 96-channel pipettor (Costar). […]
# To test whether phenotypic characterization of CLL physiology could be discerned based on responses of cells to extracellular stimuli, modulated BCR intracellular signaling was determined either in response to anti-μ (ligand-dependent) or post H2O2 treatment to evaluate the contribution of tonic signaling (ligand-independent) to BCR output. […]
# CLL cells [1] = conditions: in vitro treatment; Buchner 2009, Gobessi 2009; cited from earlier work
# CD19+CD5+B-CLL cells = assay: SCNP modulated signaling, Example 3 (B-CLL vs healthy B cells); assay type: cell-based, human; conditions: CLL samples compared to healthy controls
# Protocol: Peripheral blood mononuclear cells (PBMCs) were obtained from 39 B-CLL patients between 2006 and 2007, Rai stage 0-II, at different time points during their clinical course but prior to the initiation of treatment. PBMCs from four age-matched healthy donors were collected at the Stanford Blood Center. All donors provided informed consent for research purposes. SCNP assays were performed blinded to clinical data. Diagnosis and initiation of treatment for B-CLL were based on 1996 National Cancer Institute-Working Group (NCI-WG)/IWCLL 2008 Guidelines for Diagnosis and Treatment of CLL. The median age of CLL patients was slightly lower than the typical CLL population (58 years vs 65-70). Of the 39 samples evaluated, 15 expressed CD38 (≧30% of cells) and 20 expressed ZAP-70 (≧20% of cells); 19 were IGHV unmutated (98% cutoff); and the cytogenetic risk groups were evenly represented. IGHV mutational status and expression of CD38 and ZAP-70 were determined. […]
# SCNP analysis quantitatively measured intracellular signaling proteins within CD19+CD5+B-CLL cells using a panel of disease-relevant modulators (FIG. 27, FIG. 35A, B). […]
# Flow cytometry data were gated using WinList (Verity House Software, Topsham, Me.). […] The raw instrument fluorescence intensities were converted to calibrated intensity metrics (ERFs, Equivalent Number of Reference Fluorophores). […]
# CD19+CD5+ CLL cells [2] = assay: SCNP modulated signaling, Example 2 (10-15 min modulation); assay type: cell-based, human; conditions: SDF1α 10 ng/mL
# Protocol: Peripheral blood mononuclear cells (PBMCs) were obtained from 29 patients with CLL treated on a clinical trial at “La Sapienza” University of Rome between November 2008 and January 2010 at the time of but prior to the initiation of first treatment. All patients provided informed consent for research purposes. SCNP assays were performed blinded to clinical outcomes. Diagnosis and initiation of treatment for B-CLL were based on 1996 National Cancer Institute-Working Group ([…] 2008 Guidelines for Diagnosis and Treatment of CLL. Clinical and biological disease characteristics at diagnosis are summarized in FIG. 28 IGHV mutational status and expression of CD38 and ZAP-70 were determined. […] SCNP analysis was performed to quantitatively measure intracellular signaling proteins within CD19+CD5+ CLL cells using a panel of disease-relevant modulators. […] Cells were rested for 2 hours at 37° C. followed by modulation. Short duration modulation was performed for 10 minutes at 37° C. with the following modulators: 20 μg/mL polyclonal goat F(ab')2 anti-human IgM (Southern Biotech, Birmingham, Ala.), 5 μg/mL monoclonal anti-human IgD (BD Biosciences, San Jose, Calif.), 10 ng/mL of SDF1[…] (R&D Systems, Minneapolis, Minn.), and the combination of 20 μg/mL polyclonal goat F(ab')2 anti-human IgM and 10 ng/mL of SDF1[…]15 minute modulations were performed for the following: 0.5 μg/mL CD40L (R&D Systems, Minneapolis, Minn.), 50 ng/mL IL-[…] […] The raw instrument fluorescence intensities were converted to calibrated intensity metrics (ERFs, Equivalent Number of Reference Fluorophores). […] The term “signaling node” is used to refer to a proteomic readout in the presence or absence of a specific modulator. For example, the response to anti-IgM modulation can be measured using p-ERK as a readout. […] The term “metric” is used to refer to the quantification method used to evaluate the functional response of signaling proteins. […]
# CD19+CD5+ CLL cells [3] = assay: SCNP drug-induced signaling, Example 2 (4 and 24 hours); assay type: cell-based, human
# Protocol: Peripheral blood mononuclear cells (PBMCs) were obtained from 29 patients with CLL treated on a clinical trial at “La Sapienza” University of Rome between November 2008 and January 2010 at the time of but prior to the initiation of first treatment. All patients provided informed consent for research purposes. SCNP assays were performed blinded to clinical outcomes. […] SCNP analysis was performed to quantitatively measure 18 intracellular signaling proteins within CD19+CD5+ CLL cells using a panel of 14 disease-relevant modulators (FIG. 27) as follows:
# SCNP analysis was performed to quantitatively measure intracellular signaling proteins within CD19+CD5+ CLL cells using a panel of disease-relevant modulators. First, the cryopreserved PBMC samples were thawed at 37° C., stained for viability with Amine Aqua (Invitrogen, Carlsbad, Calif.), resuspended in RPMI with 10% FBS and aliquoted at 100,000 cells per well 96-deepwell plates. Cells were rested for 2 hours at 37° C. followed by modulation. Short duration modulation was performed for 10 minutes at 37° C. with the following modulators: 20 μg/mL polyclonal goat F(ab′)2 anti-human IgM (Southern Biotech, Birmingham, Ala.), 5 μg/mL monoclonal anti-human IgD (BD Biosciences, San Jose, Calif.), 10 ng/mL of SDF1□ (R&D Systems, Minneapolis, Minn.), and the combination of 20 μg/mL polyclonal goat F(ab′)2 anti-human IgM and 10 ng/mL of SDF1□□□15 minute modulations were performed for the following: 0.5 μg/mL CD40L (R&D Systems, Minneapolis, Minn.), 50 ng/mL IL-2 (R&D Systems, Minneapolis, Minn.), 50 ng/mL IL-4 (BD Biosciences, San Jose, Calif.), 50 ng/mL IL-21 (Peprotech, Rocky Hill, N.J.), 1000 IU/mL of IFN□ (PBL InterferonSource, Piscataway, N.J.), 5 μg/mL R848 (Invivogen, San Diego, Calif.), and 1 μM thapsigargin (EMD Millipore, Billerica, Mass.). […]
# CLL cells [4] = conditions: inhibition of AKT phosphorylation by the PI3K inhibitor; cited from earlier work
# [5] = 24 hours, samples with low spontaneous apoptosis
molecule,measurement,setting,value
"OO [H2O2, hydrogen peroxide]",anti-μ-mediated BCR signaling in presence of H2O2,healthy B cells; B cells from healthy donors,further potentiated
same,response of all signaling molecules except Akt to H2O2 treatment alone,healthy B cells; healthy B cells,minimally responsive
same,B cells with activated Syk and BLNK,CLL B cells; sample CLL007 (Group II),approximately 2%
same,B cells with activated Syk and BLNK,CLL B cells; sample CLL021 (Group II),5-6%
COc1cc(Nc2ncc(F)c(Nc3ccc4c(n3)NC(=O)C(C)(C)O4)n2)cc(OC)c1OC [R406],apoptotic response of CLL cells,CLL cells [1],mediated an apoptotic response
SDF1α,SDF1α→p-AKT modulation as a single stimulus,CD19+CD5+B-CLL cells,weaker in nearly all CLL samples
same,SDF1α→p-AKT signal,"CD19+CD5+ CLL cells [2]; 10 min, moderate signal",≥ 0.25 log 2Fold
same,SDF1α→p-ERK signal,"CD19+CD5+ CLL cells [2]; 10 min, moderate signal",≥ 0.25 log 2Fold
same,"p-ERK signal, median log 2Fold","CD19+CD5+ CLL cells [2]; 10 min modulation, αIgM 20 μg/mL",0.38 log 2Fold
Cn1c(CCCC(=O)O)nc2cc(N(CCCl)CCCl)ccc21 [bendamustine],"induced p-53BP1 signaling, bendamustine versus fludarabine",CD19+CD5+ CLL cells [3]; [5],greater
same,"induced p-H2AX signaling, bendamustine versus fludarabine",CD19+CD5+ CLL cells [3]; [5],equivalent
same,p21 induction in response to bendamustine,"CD19+CD5+ CLL cells [3]; CLL samples with 17p deletion, 24 hour, additional cohort of 7 CLL samples",impaired p21 induction
CC[C@H](Nc1ncnc2[nH]cnc12)c1nc2cccc(F)c2c(=O)n1-c1ccccc1 [CAL-101/GS-1101],CD40L protection from spontaneous apoptosis,CLL cells [4],blocked
